Experimental data as given in patent US8759264B2, “Water-based hydraulic fluids comprising dithio-di(aryl carbolic acids)” (Clarient Finance (BVI) Limited, priority 2008, dated 2014).
Where two headings read alike, the source gives them in different places.

Tests used:
[1] = Biodegradability (OECD 306)
[2] = test system: Fish; assay: Fish toxicity; settings: in vivo
[3] = test system: Algal; assay: Algal toxicity; settings: in vivo

Compound	Biodegradability (OECD 306) ([1]; OECD 306) [%]	Fish toxicity (LC50) [2] [µg/mL]	Algal toxicity (EC50) [3] [µg/mL]	Biodegradability (OECD 306) [1] [%]
O=C(O)c1ccccc1SSc1ccccc1C(=O)O [Dithiodi(benzoic acid), o-dithiodibenzoic acid]	>30	>100	>100	
S=c1[nH]c2ccccc2s1 [Mercaptobenzothiazole]	<20	<10	<1	
N-Aminoethyloleyl-imidazoline		<10	<1	>60
